Experimental findings from patent publication US9750728B2, “Method and pharmaceutical composition for inhibiting PI3K/AKT/mTOR signaling pathway” (TARGETED THERAPEUTICS, LLC, priority 2012, dated 2017) are described below.

Entries after “also recorded” stand apart in the source; their conditions may differ.

Type in all cases: cell-based
Assay [1] relates to AKT phosphorylation (S473). As to the kind of experiment: Immunoblot analysis of AKT phosphorylation in cancer cells. Conditions: for AKT phosphorylation: two days; for AKT phosphorylation (S473): ZPP 400 μM or Y29794 1 μM; for rapamycin-induced increase in phosphorylation of AKT: rapamycin 10 nM plus ZPP 200 μM or Y29794 0.5 μM, 24 hours. How it is done: (§1) 2.2 Immunoblot analysis of gene silencing of PRCP or PREP in cancer cells. Mouse anti-PRCP antibody was purchased from Abcam (Cambridge, Mass., USA). Goat anti-PREP antibody was purchased from R&D Systems (Minneapolis, Minn., USA). Mouse anti-R-actin antibody antibodies was from Santa Cruz Biotechnology (Santa Cruz, Calif., USA). Panc-1 pancreatic cancer cells and MCF7 breast cancer cells were cultured to 80% confluence, cells were rinsed three times with pre-cooled PBS, 500 μl of lysis buffer (150 mmol/L Nacl, 1% Triton-x-100, 50 mmol/l TrispH8.0, 1 mmol/L PMSF, 1 ug/L aprotinin, 1 ug/L leupeptin, 1 ug/L peptain) was added to the cells. Cells were scraped and transferred to a centrifuge tube with a pipette. The lysates were spun in a microcentrifuge at maximal speed for 10 minutes at 4° C. to get rid of the insoluble fraction. Protein concentration was determined by Bradford assay. For immunoprecipitation: 2-5 ug protein-specific antibodies were added to 250-500 ug of lysates in a tube and incubated on an ordital shaker 4° C. for 2-4 hours with moderate shaking, then 20 ul Protein G beads (Santa Cruz Biotechnology (Santa Cruz, Calif., USA.) were added and the mixture was incubated with moderate shaking for another hour. After washing the beads in lysis buffer five times, the immunoprecipitates were boiled in 2× Laemmli sample buffer (50 mmoL/L Tris-HCL (pH8.0), 100 mmoL/L DTT, 2% SDS, 0.1% bromophenol blue, 10% glycerol) for five minutes. The proteins were separated by conventional SDS-polyacrylamide gel electrophoresis (SDS-PAGE) electrophoresis and transferred to Amersham Hybond-P PVDF membrane (GE Company, Pittsburgh, Pa., USA). For immunoblot, the membrane was blocked in 2% BSA in TBST buffer (Tris 1.21 g+NaCl 5.84 g+800 ml H2O adjusted to pH 8.0 with HCl) for one hour and then incubated with primary antibodies in TBST at room temperature (22-25° C.) for 2 hours. After washing three times with TBST, the membrane was incubated with HRP-conjugated secondary antibodies for 0.5 hours at room temperature. After washing the membrane five times with TBST (5 minutes/each), the membrane was incubated with ECL chromogenic reagent (GE Company, Pittsburgh, Pa., USA) for 1-5 minutes. The blots were exposed to films in darkroom for 1-5 minute. The films were developed in an automatic X-OMAT Developer (KODAK, Rochester, N.Y., USA). […] PREP gene silencing (PREP KD) or PRCP gene silencing (PRCP KD) or gene silencing both PRCP and PREP (DKD) in MCF7 cells reduces expression of PREP and/or PRCP proteins compared with control cells (control) (FIGS. 6B & 6C).
3.1 Reduction in AKT phosphorylation is examined by immunoblot using rabbit anti-phospho-AKT […] and rabbit anti-pan AKT antibodies purchased from Cell Signaling Technology (Danvers, Mass., USA) in the cells with gene silencing of PRCP and/or PREP or treated with ZPP or Y29794. Reduction in PRCP and/or PREP is shown by Western blot and quantitative PCR described in 2.2.

The subject of assay [2] is IRS-1. As to the kind of experiment: Immunoblot analysis of IRS-1 (protein, phosphorylation, half-life, p85 coimmunoprecipitation). Conditions: for rapamycin-induced increase in IRS-1: rapamycin 10 nM plus ZPP 200 μM or Y29794 0.5 μM, 24 hours. On the procedure:
as §1
3.2 AKT phosphorylation was examined by immunoblot as described in 3.1. IRS-1 expression was analyzed by immunoblot using anti-IRS-1 antibodies purchased from Santa Cruz Biotechnology (Santa Cruz, Calif., USA). Reduction in PRCP and/or PREP by gene silencing is shown by Western blot and quantitative PCR described in 2.2.
3.4 ZPP or Y29794 inhibits IRS-1 tyrosine phosphorylation and p85 PI3K subunit interaction with IRS-1 and PI3K kinase activity. Panc-1 cells were treated with ZPP (200 μM) or Y29794 (0.5 μM) for 24 hours. Lysates were immunoprecipitated with anti-IRS-1 antibodies and the anti-IRS-1 immunoprecipitates were used for PI3K kinase assay and anti-IRS-1 phospho-tyrosine and anti-p85 immunoblot analysis (FIG. 13). ZPP or Y29794 decreased IRS-1-associated PI3K activity (FIG. 13, upper) and tyrosine phosphorylation of IRS-1 and p85 (FIG. 13, lower).
As described in Example 2.2 and above, the cells with PRCP and PREP gene silencing were used for analysis of PRCP and PREP gene silencing and inhibition of serine phosphorylation and degradation of IRS-1 and its effects on response to rapamycin. […] Compared to control cells, DKD cells show […] serine phosphorylation (S307 and S636/639) of IRS-1 alongside with decreased tyrosine phosphorylation of IRS-1 (FIG. 18B). […]
(Immunoblotting shows a protein as a band on a membrane.)

The test system of assay [3] is mTOR (S2448) phosphorylation. As to the kind of experiment: Immunoblot analysis of mTOR phosphorylation. Conditions: Panc-1; rapamycin, or Y29794 1 μM (FIG. 19D).
Protocol: Mouse anti-PRCP antibody was purchased from Abcam (Cambridge, Mass., USA). Goat anti-PREP antibody was purchased from R&D Systems (Minneapolis, Minn., USA). Mouse anti-R-actin antibody antibodies was from Santa Cruz Biotechnology (Santa Cruz, Calif., USA). Panc-1 pancreatic cancer cells and MCF7 breast cancer cells were cultured to 80% confluence, cells were rinsed three times with pre-cooled PBS, 500 μl of lysis buffer (150 mmol/L Nacl, 1% Triton-x-100, 50 mmol/l TrispH8.0, 1 mmol/L PMSF, 1 ug/L aprotinin, 1 ug/L leupeptin, 1 ug/L peptain) was added to the cells. Cells were scraped and transferred to a centrifuge tube with a pipette. The lysates were spun in a microcentrifuge at maximal speed for 10 minutes at 4° C. to get rid of the insoluble fraction. Protein concentration was determined by Bradford assay. For immunoprecipitation: 2-5 ug protein-specific antibodies were added to 250-500 ug of lysates in a tube and incubated on an ordital shaker 4° C. for 2-4 hours with moderate shaking, then 20 ul Protein G beads (Santa Cruz Biotechnology (Santa Cruz, Calif., USA.) were added and the mixture was incubated with moderate shaking for another hour. After washing the beads in lysis buffer five times, the immunoprecipitates were boiled in 2× Laemmli sample buffer (50 mmoL/L Tris-HCL (pH8.0), 100 mmoL/L DTT, 2% SDS, 0.1% bromophenol blue, 10% glycerol) for five minutes. The proteins were separated by conventional SDS-polyacrylamide gel electrophoresis (SDS-PAGE) electrophoresis and transferred to Amersham Hybond-P PVDF membrane (GE Company, Pittsburgh, Pa., USA). For immunoblot, the membrane was blocked in 2% BSA in TBST buffer (Tris 1.21 g+NaCl 5.84 g+800 ml H2O adjusted to pH 8.0 with HCl) for one hour and then incubated with primary antibodies in TBST at room temperature (22-25° C.) for 2 hours. After washing three times with TBST, the membrane was incubated with HRP-conjugated secondary antibodies for 0.5 hours at room temperature. […]
Setting [4] is: Panc-1, 24 hours, ZPP 200 μM or Y29794 0.5 μM.

Regarding `CC(C)c1ccc(C(=O)c2cccs2)c(SCCCCCCCCN(C)C)n1` [Y29794, [2-[8-(dimethylamino)octylsulfanyl]-6-propan-2-ylpyridin-3-yl]-thiophen-2-ylmethanone], the AKT phosphorylation result in assay [1] (MCF7, Y29794 0.5 μM, vs vehicle (ethanol)) was “significantly decreased”; in assay [1] (PK-9, ZPP 200 μM or Y29794 0.5 μM, vs vehicle) it was “significantly decreased”; in assay [1] (Panc-1, ZPP 200 μM or Y29794 0.5 μM, vs vehicle), “significantly decreased”. The “AKT phosphorylation (S473)” value is on record as “reduced” in assay [1] (MCF7, vs vehicle (FIG. 8B, 8E legend)); “reduced” in assay [1] (PK-9, vs vehicle (FIG. 8A, 8F legend)); “reduced” in assay [1] (Panc-1, vs vehicle (FIG. 8C, 8D legend)). In addition, the “rapamycin-induced increase in phosphorylation of AKT” value in assay [1] (MCF7) and in assay [1] (Panc-1) was “blocked” each time. Besides, the “phosphorylated AKT (S473)” value in assay [1] (Panc-1, ZPP 400 μM alone (FIG. 10A legend) or Y29794 0.5 μM alone (FIG. 11A legend)) is on record as “reduced”. In addition, the “rapamycin-induced increase in IRS-1” value in assay [2] (MCF7) and in assay [2] (Panc-1) was “blocked” each time. Besides, the “p85 coimmunoprecipitated with IRS-1” value in assay [2] (setting [4]) is on record as “reduces; also recorded: decreased”. The “tyrosine phosphorylation of IRS-1 in anti-IRS-1 immunoprecipitates” value in assay [2] (setting [4]) is given as “reduces; also recorded: decreased”. Also, the IRS-1 protein entry in assay [2] (Panc-1, Y29794 1 μM (FIG. 19A, 19B)) was “reduces; also recorded: significantly reduced”. The “serine phosphorylation (S307 and S636/639) of IRS-1” value in assay [2] (Panc-1, Y29794 1 μM (FIG. 19B)) is recorded as “induces; also recorded: increased”. Moreover, the “rapamycin-induced increase in IRS-1 protein” value in assay [2] (Panc-1, Y29794 1 μM with rapamycin (FIG. 19D)) is listed as “inhibits; also recorded: not increased nor stabilized”. Besides, the “mTOR (S2448) phosphorylation” value in assay [3] is “without affecting”.
